Data taken from ChEMBL document CHEMBL3045199, “Synthesis of some (E)-6-[2-(furan-2-yl)ethenyl]-1,2,4-triazin-5-ones and their biological evaluation as antitumor agents” (2013).

What was measured:
Assay type in all cases: functional
[1] = Cytotoxicity against Homo sapiens (human) renal cancer cells after 48 hr by SRB assay; conditions: Cancer cell lines
[2] = Cytotoxicity against Homo sapiens (human) melanoma cells after 48 hr by SRB assay; conditions: Melanoma cell
[3] = Cytotoxicity against Homo sapiens (human) CNS cancer cells after 48 hr by SRB assay; conditions: Cancer cell lines
MDA-MB-468 = assay: Cytotoxicity against Homo sapiens (human) MDA-MB-468 cells after 48 hr by SRB assay; conditions: MDA-MB-468, 48 h
SNB-19 = assay: Cytotoxicity against Homo sapiens (human) SNB19 cells assessed as growth inhibition at 10 uM after 24 hr; conditions: SNB-19, 24 h, read-out: GI
SF-539 = assay: Cytotoxicity against Homo sapiens (human) SF539 cells assessed as growth inhibition at 10 uM after 24 hr; conditions: SF-539, 24 h, read-out: GI
SF-295 = assay: Cytotoxicity against Homo sapiens (human) SF295 cells assessed as growth inhibition at 10 uM after 24 hr; conditions: SF-295, 24 h, read-out: GI
SW-620 = assay: Cytotoxicity against Homo sapiens (human) SW620 cells assessed as growth inhibition at 10 uM after 24 hr; conditions: SW-620, 24 h, read-out: GI
KM12 = assay: Cytotoxicity against Homo sapiens (human) KM12 cells assessed as growth inhibition at 10 uM after 24 hr; conditions: KM12, 24 h, read-out: GI
HCT-15 = assay: Cytotoxicity against Homo sapiens (human) HCT15 cells assessed as growth inhibition at 10 uM after 24 hr; conditions: HCT-15, 24 h, read-out: GI
HCC 2998 = assay: Cytotoxicity against Homo sapiens (human) HCC2998 cells assessed as growth inhibition at 10 uM after 24 hr; conditions: HCC 2998, 24 h, read-out: GI
NCI-H460 = assay: Cytotoxicity against Homo sapiens (human) NCI-H460 cells assessed as growth inhibition at 10 uM after 24 hr; conditions: NCI-H460, 24 h, read-out: GI
NCI-H322M = assay: Cytotoxicity against Homo sapiens (human) NCI-H322M cells assessed as growth inhibition at 10 uM after 24 hr; conditions: read-out: GI
HOP-92 = assay: Cytotoxicity against Homo sapiens (human) HOP92 cells assessed as growth inhibition at 10 uM after 24 hr; conditions: HOP-92, 24 h, read-out: GI
EKVX = assay: Cytotoxicity against Homo sapiens (human) EKVX cells assessed as growth inhibition at 10 uM after 24 hr; conditions: read-out: GI
A549 = assay: Cytotoxicity against Homo sapiens (human) A549/ATCC cells assessed as growth inhibition at 10 uM after 24 hr; conditions: A549, 24 h, read-out: GI
SR = assay: Cytotoxicity against Homo sapiens (human) SR cells assessed as growth inhibition at 10 uM after 24 hr; conditions: read-out: GI
HL-60(TB) = assay: Cytotoxicity against Homo sapiens (human) HL-60(TB) cells assessed as growth inhibition at 10 uM after 24 hr; conditions: HL-60, 24 h, read-out: GI
CCRF-CEM = assay: Cytotoxicity against Homo sapiens (human) CCRF-CEM cells assessed as growth inhibition at 10 uM after 24 hr; conditions: read-out: GI
RXF 393 = assay: Cytotoxicity against Homo sapiens (human) RXF393 cells assessed as growth inhibition at 10 uM after 24 hr; conditions: RXF 393, 24 h, read-out: GI
CAKI-1 = assay: Cytotoxicity against Homo sapiens (human) Caki1 cells assessed as growth inhibition at 10 uM after 24 hr; conditions: CAKI-1, 24 h, read-out: GI
ACHN = assay: Cytotoxicity against Homo sapiens (human) ACHN cells assessed as growth inhibition at 10 uM after 24 hr; conditions: read-out: GI
[4] = Cytotoxicity against Homo sapiens (human) NCI-ADR-RES cells assessed as growth inhibition at 10 uM after 24 hr; conditions: read-out: GI
OVCAR-5 = assay: Cytotoxicity against Homo sapiens (human) OVCAR5 cells assessed as growth inhibition at 10 uM after 24 hr; conditions: OVCAR-5, 24 h, read-out: GI
OVCAR-8 = assay: Cytotoxicity against Homo sapiens (human) OVCAR8 cells assessed as growth inhibition at 10 uM after 24 hr; conditions: OVCAR-8, 24 h, read-out: GI
OVCAR-3 = assay: Cytotoxicity against Homo sapiens (human) OVCAR3 cells assessed as growth inhibition at 10 uM after 24 hr; conditions: OVCAR-3, 24 h, read-out: GI
IGROV-1 = assay: Cytotoxicity against Homo sapiens (human) IGROV1 cells assessed as growth inhibition at 10 uM after 24 hr; conditions: IGROV-1, 24 h, read-out: GI
SK-MEL-5 = assay: Cytotoxicity against Homo sapiens (human) SK-MEL-5 cells assessed as growth inhibition at 10 uM after 24 hr; conditions: SK-MEL-5, 24 h, read-out: GI
UACC-257 = assay: Cytotoxicity against Homo sapiens (human) UACC257 cells assessed as growth inhibition at 10 uM after 24 hr; conditions: UACC-257, 24 h, read-out: GI
SK-MEL-28 = assay: Cytotoxicity against Homo sapiens (human) SK-MEL-28 cells assessed as growth inhibition at 10 uM after 24 hr; conditions: SK-MEL-28, 24 h, read-out: GI
M14 = assay: Cytotoxicity against Homo sapiens (human) M14 cells assessed as growth inhibition at 10 uM after 24 hr; conditions: M14, 24 h, read-out: GI
U-251 = assay: Cytotoxicity against Homo sapiens (human) U251 cells assessed as growth inhibition at 10 uM after 24 hr; conditions: U-251, 24 h, read-out: GI
LOX IMVI = assay: Cytotoxicity against Homo sapiens (human) LOXIMVI cells assessed as growth inhibition at 10 uM after 24 hr; conditions: read-out: GI
SNB-75 = assay: Cytotoxicity against Homo sapiens (human) SNB75 cells assessed as growth inhibition at 10 uM after 24 hr; conditions: SNB-75, 24 h, read-out: GI
T47D = assay: Cytotoxicity against Homo sapiens (human) T47D cells assessed as growth inhibition at 10 uM after 24 hr; conditions: read-out: GI
PC-3 = assay: Cytotoxicity against Homo sapiens (human) PC3 cells assessed as growth inhibition at 10 uM after 24 hr; conditions: PC-3, 24 h, read-out: GI
SN12C = assay: Cytotoxicity against Homo sapiens (human) SN12C cells assessed as growth inhibition at 10 uM after 24 hr; conditions: read-out: GI
MDA-MB-435 = assay: Cytotoxicity against Homo sapiens (human) MDA-MB-435 cells after 48 hr by SRB assay; conditions: MDA-MB-435, 48 h
[5] = read-out: LC50 (the source's name)

SMILES: Nc1cc(-c2ccc(Cl)cc2)nn1-c1nc(=O)c(/C=C/c2ccco2)n[nH]1
- GI50 [1]: 5.85 µM
- TGI [1]: 37.4 µM
- CC50 [1, 5]: > 100 µM
- GI50 [2]: 6.7 µM
- TGI [2]: 59.3 µM
- CC50 [2, 5]: > 100 µM
- GI50 [3]: 4.99 µM
- TGI [3]: 44.5 µM
- CC50 [3, 5]: > 100 µM
- GI50 (MDA-MB-468): 3.08 µM
- TGI (MDA-MB-468): 22.2 µM
- CC50 (MDA-MB-468; [5]): > 100 µM
- inhibition of growth at 10 µM (SNB-19): 42.4%
- inhibition of growth at 10 µM (SF-539): 44.6%
- inhibition of growth at 10 µM (SF-295): 90.1%
- inhibition of growth at 10 µM (SW-620): 50.8%
- inhibition of growth at 10 µM (KM12): 44%
- inhibition of growth at 10 µM (HCT-15): 61.9%
- inhibition of growth at 10 µM (HCC 2998): 51.5%
- inhibition of growth at 10 µM (NCI-H460): 79.6%
- inhibition of growth at 10 µM (NCI-H322M): 75.6%
- inhibition of growth at 10 µM (HOP-92): 39.7%
- inhibition of growth at 10 µM (EKVX): 58.3%
- inhibition of growth at 10 µM (A549): 62.7%
- inhibition of growth at 10 µM (SR): 61.9%
- inhibition of growth at 10 µM (HL-60(TB)): 4.83%
- inhibition of growth at 10 µM (CCRF-CEM): 66.1%
- inhibition of growth at 10 µM (RXF 393): 32.2%
- inhibition of growth at 10 µM (CAKI-1): 99%
- inhibition of growth at 10 µM (ACHN): 70.6%
- inhibition of growth at 10 µM [4]: 94.3%
- inhibition of growth at 10 µM (OVCAR-5): 39.1%
- inhibition of growth at 10 µM (OVCAR-8): 75.2%
- inhibition of growth at 10 µM (OVCAR-3): 62.1%
- inhibition of growth at 10 µM (IGROV-1): 65%
- inhibition of growth at 10 µM (SK-MEL-5): 54%
- inhibition of growth at 10 µM (UACC-257): 30.4%
- inhibition of growth at 10 µM (SK-MEL-28): 33.6%
- inhibition of growth at 10 µM (M14): 42.6%
- inhibition of growth at 10 µM (U-251): 49.4%
- inhibition of growth at 10 µM (LOX IMVI): 50.1%
- inhibition of growth at 10 µM (SNB-75): 32.6%
- inhibition of growth at 10 µM (T47D): 37.3%
- inhibition of growth at 10 µM (PC-3): 47.4%
- inhibition of growth at 10 µM (SN12C): 31.8%
- GI50 (MDA-MB-435): 5.22 µM
- TGI (MDA-MB-435): > 100 µM
- CC50 (MDA-MB-435; [5]): > 100 µM
